Test results published in US20250228831A1, “METHOD TO PREVENT AND TREAT GLAUCOMA BY CALCIUM CHANNEL BLOCKERS, ANGIOTENSIN CONVERTING ENZYME INHIBITORS, AND ANGIOTENSIN RECEPTOR BLOCKERS” (priority 2022, published 2025).

Key:
Type in all cases: in vivo, human
glaucoma [1] = experiment: Treatment of a patient diagnosed with glaucoma, one eye treated and the other left untreated
Text: (§1) A patient is diagnosed with glaucoma.
A patient is diagnosed with glaucoma. A composition comprising the ACE inhibitor enalapril is directly applied to the vitreous surface of one eye while the other eye is left untreated.
A patient is diagnosed with glaucoma. A composition comprising the angiotensin receptor blocker losartan is directly applied to the vitreous surface of one eye while the other eye is left untreated.
as §1
A patient is diagnosed with glaucoma. A composition comprising the ACE inhibitor enalapril is applied to the eye by intravitreal or intraocular injection while the other eye is left untreated.
A patient is diagnosed with glaucoma. A composition comprising the angiotensin receptor blocker losartan is applied to the eye by intravitreal or intraocular injection while the other eye is left untreated.

glaucoma [2] = experiment: Prevention of recurrence in a patient successfully treated for glaucoma, one eye treated and the other left untreated; details: untreated eye shows signs of recurrence
Text: A composition comprising the ACE inhibitor enalapril is directly applied to the vitreous surface of one eye while the other eye is left untreated.
A composition comprising the angiotensin receptor blocker losartan is directly applied to the vitreous surface of one eye while the other eye is left untreated.
A composition comprising the ACE inhibitor enalapril is applied to the eye by intravitreal or intraocular injection while the other eye is left untreated.
A composition comprising the angiotensin receptor blocker losartan is applied to the eye by intravitreal or intraocular injection while the other eye is left untreated.

primary form of glaucoma = experiment: Ramiprilat formulation given to the eye of a patient with a primary form of glaucoma
Description: In this example, a patient with a primary form of glaucoma is administered a topical formulation comprising ramiprilat to the eye. […] The patient's primary form of glaucoma is therefore treated by the […] formulation.
In this example, a patient with a primary form of glaucoma is administered an injectable formulation comprising ramiprilat to the posterior chamber of the eye. […] The patient's primary form of glaucoma is therefore treated by the […] formulation.

[3] = composition applied by intravitreal or intraocular injection
[4] = composition directly applied to the vitreous surface of one eye
[5] = injectable formulation to the posterior chamber of the eye

Row | Compound | symptoms of glaucoma, treated eye versus untreated eye (glaucoma [1]; [3]) | symptoms of glaucoma, treated eye versus untreated eye (glaucoma [1]; [4]) | recurrence of glaucoma, treated eye versus untreated eye (glaucoma [2]; [3]) | recurrence of glaucoma, treated eye versus untreated eye (glaucoma [2]; [4]) | capillary networks and capillary blood supply to the eye (primary form of glaucoma; [5]) | intraocular pressure (primary form of glaucoma; [5]) | optic nerve (primary form of glaucoma; [5]) | capillary networks and capillary blood supply to the eye (primary form of glaucoma; topical formulation to the eye) | intraocular pressure (primary form of glaucoma; topical formulation to the eye) | optic nerve (primary form of glaucoma; topical formulation to the eye)
1 | CCOC(=O)[C@H](CCc1ccccc1)N[C@@H](C)C(=O)N1CCC[C@H]1C(=O)O [enalapril] | reduced symptoms of glaucoma | reduced symptoms of glaucoma | not develop glaucoma | not develop glaucoma | – | – | – | – | – | –
2 | Ramiprilat | – | – | – | – | grows capillary networks and increases the capillary blood supply | reduction in intraocular pressure | repair to the optic nerve | grows capillary networks and increases the capillary blood supply | reduction in intraocular pressure | repair to the optic nerve
3 | CCCCc1nc(Cl)c(CO)n1Cc1ccc(-c2ccccc2-c2nn[nH]n2)cc1 [losartan] | reduced symptoms of glaucoma | reduced symptoms of glaucoma | not develop glaucoma | not develop glaucoma | – | – | – | – | – | –
